Measured values: patent publication US6699861B1, “Anti-quinazoline compounds” (Cancer Research Technology Limited, priority 1999, dated 2004)
Values joined by “and” are separate entries in the source; they are usually repeats but may differ in a detail not shown here. Equal entries are not always repeated. Where two headings read alike, the source gives them in different places.

Experiments:
W1L2:C1 cells = assay: Growth inhibition of W1L2:C1 cells (elevated TS); format: cell-based, human; settings: read-out: Inhibition of Cell Growth IC50, W1L2:C1 (B)
Method: (§1) W1L2 human lymphoblastoid, W1L2:C1 (elevated TS; O'Connor et al, Cancer Res, 52, 1137-1143 (1992)) and L1210 mouse leukaemia cells were cultured in suspension and A2780, PXN94, 41M, HX62, SKOV3 (human ovarian carcinoma), MCF-7 (human breast carcinoma), HT29 and SW480 (human colon carcinoma) cell lines were grown as monolayers as described in Jackman et al, Cancer Res, 50, 5212-5218 (1990) and Jackman et al, Br. J. Cancer, 71, 914-924 (1995).
(§2) Growth inhibition studies with suspension cells were performed as described in Jackman et al, Cancer Res, 50, 5212-5218 (1990). Activity against the adherent cell lines was assessed by MTT assay (Twentyman et al, Br. J. Cancer, 56, 279-285 (1987)) where cells were seeded in 96-well plates at 1000-3000 cells per well, incubated overnight and then exposed to the appropriate drug concentrations for 96-120 h.

W1L2:R865 cell line = assay: Growth inhibition of W1L2:R865 cells (acquired resistance to CB 30865); format: cell-based, human; settings: 72 h growth inhibition assay (Coulter counts), read-out: Inhibition of Cell Growth IC50, W1L2:R865 (D)
Method: A cell line was raised with acquired resistance to CB 30865, denoted W1L2:R865, by stepwise selection over ˜9 months.
The generated W1L2:R865 cell line was routinely cultured in 0.03 μm CB 30865 under the same conditions as W1L2 cells, with cells being grown in the absence of CB 30865 for ˜2 weeks before an experiment.
The activity of compounds against W1L2:R865 cells was determined within parallel experiments by 72 h growth inhibition assay (Coulter counts). CB 30865 was included in every experiment as an internal control.

[1] = system: W1L2 human lymphoblastoid cells; assay: Growth inhibition of W1L2 cells; format: cell-based
W1L2 cells = assay: Growth inhibition of W1L2 in presence of folate metabolites (dThd/HX); format: cell-based, human; settings: Homo sapiens; in the presence of 10 μM thymidine (dThd) and 50 μM hypoxantine (HX); read-out: Inhibition of Cell Growth IC50, W1L2 + dThd/HX (C)
Method: Growth inhibition assays as described above were performed in W1L2 cells where compounds were incubated in the presence of 10 μM thymidine (dThd) and 50 μM hypoxantine (HX) (purchased from Sigma Chemical Co.).

[2] = background statement on the known compound; cited from earlier work
HT29 cells = assay: In vitro sensitivity of HT29 cells compared with CH1 cells; format: cell-based, human
Method: as §1, §2

[3] = Tolerability (weight loss, deaths, MTD) in nude mice
Method: One day later (day 1), CB 300919 was administered by ip injection, daily for 3 days (days 1-3).
Mice injected with CB 300919 i.p. on days 1-3.

HT29 colon line = assay: Hollow fibre assay, HT29 cells; format: in vivo, nude mice; settings: for O.D. as % control: harvested day 5
Method: (§3) As adopted by the NCI, the hollow fibre assay (Hollingshead et al. 1995, Life Sciences, 57: 13 1-141) was used as an initial means of assessing the in vivo antitumour activity of CB 300919.
(§4) The hollow fibre assay was performed using the CH1 ovarian carcinoma cell line and the HT29 colon line.
(§5) Results are expressed as a % Treated/Control (T/C).

MTD in DBA2 mice = settings: mouse, in vivo
Method: MTD in DBA2 mice ˜1.5 mg/kg/d×3 days.

[4] = target: mouse thymidylate synthase (TS) (Mus musculus, UniProt P07607); assay: Inhibition of L1210 thymidylate synthase (TS)
[5] = system: CH1 ovarian carcinoma cell line; assay: Hollow fibre assay, CH1 cells; format: in vivo, nude mice; settings: for O.D. as % control: harvested day 5
Method: as §3, §4, §5

[6] = 0.25 mg/kg/d i.p. daily x 3 days
[7] = 0.50 mg/kg/d i.p. daily x 3 days
[8] = 0.75 mg/kg/d i.p. daily x 3 days

Chain of mouse thymidylate synthase (TS) (P07607 whole entry): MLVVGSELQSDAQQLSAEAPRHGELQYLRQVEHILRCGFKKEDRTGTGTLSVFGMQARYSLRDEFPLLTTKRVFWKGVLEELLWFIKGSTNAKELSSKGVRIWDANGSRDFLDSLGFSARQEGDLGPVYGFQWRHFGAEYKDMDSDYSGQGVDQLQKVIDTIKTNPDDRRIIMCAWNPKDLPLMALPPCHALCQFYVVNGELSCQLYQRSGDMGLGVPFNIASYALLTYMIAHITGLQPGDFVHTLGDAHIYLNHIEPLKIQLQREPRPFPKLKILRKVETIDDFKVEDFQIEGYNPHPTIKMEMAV

Compound: C#CCN(Cc1cc2c(=O)[nH]c(C)nc2cc1Br)c1ccc(C(=O)NCc2cccnc2)cc1 [CB30865, 4-[N-[7-bromo-2-methyl-4-oxo-3,4-dihydroquinazolin-6-ylmethyl]-N-(prop-2-ynyl)amino]-N-(3-pyridylmethyl)benzamide, reference compound]
- IC50 (W1L2:C1 cells; Homo sapiens): 2.3 ± 0.15 nM
- IC50 (W1L2:R865 cell line; Homo sapiens): 610 nM
- IC50 ([1]; Homo sapiens, Lymphoblastoid cell, W1L2 suspension cells, read-out: Inhibition of Cell Growth IC50, W1L2 (B)): 2.8 ± 0.5 nM
- IC50 ([1]; Homo sapiens, Lymphoblastoid cell, W1L2 cells, 72 h, read-out: 72 h IC50): 2.8 nM
- IC50 (W1L2 cells): 2.2 ± 0.82 nM
- water-solubility [2]: very low water-solubility

Compound: C#CCN(Cc1cc2c(=O)n(C)c(CN3CCN(C)CC3)nc2cc1Cl)c1ccc(C(=O)NCc2cccnc2)cc1 [CB300919, 4-[N-[7-Chloro-3-methyl-2-(4-methyl-piperazin-1-yl)methyl-4-oxo-3,4-dihydroquinazolin-6-ylmethyl]-N-(prop-2-ynyl)amino]-N-(3-pyridylmethyl)benzamide]
- lower sensitivity of HT29 cells in vitro (HT29 cells): ~10 fold
- Weight loss (up to day 5) [3, 6]: No sig. wt. loss
- Weight loss (up to day 5) [3, 7]: 0-19% wt. loss
- Weight loss (up to day 5) [3, 8]: 9-22% wt. loss
- Comments: mice killed ([3]; 0.75 mg/kg/d i.p. daily x 3 days, d4, 22% wt. loss): ⅓ killed (d4; 22% wt. loss
- MTD at 3 days ([3]; nude, mouse, in vivo, intraperitoneal): 0.5 to 0.75 mg/kg/day
- IC50 (W1L2:C1 cells): 0.44 nM and 0.28 nM
- O.D. as % control (HT29 colon line; [6]): 92%
- O.D. as % control (HT29 colon line; [7]): 34%
- O.D. as % control (HT29 colon line; [8]): 29%
- Dose to give 50% inhibition of tumour growth (HT29 colon line; i.p. daily x 3 days): 0.4 mg/kg/day
- IC50 (W1L2:R865 cell line): 13000 ± 4500 nM
- IC50 ([1]; W1L2 suspension cells, read-out: Inhibition of Cell Growth IC50, W1L2 (B)): 0.49 ± 0.24 nM
- IC50 (W1L2 cells): 0.32 nM
- MTD at 3 days (MTD in DBA2 mice): ~1.5 mg/kg/day
- Inhibition of L1210 TS (A) IRP* (inverse relative potency) [4]: >2500
- optical density (% Treated/Control) ([5]; CH1 cells in the fibres, all doses given IP (0.25-0.75 mg/kg/day×3 days)): < 15%
- O.D. as % control ([5]; CH1 ovarian, 0.25 mg/kg/d i.p. daily x 3 days): 13%
- O.D. as % control ([5]; CH1 ovarian, 0.50 mg/kg/d i.p. daily x 3 days): 13%
- O.D. as % control ([5]; CH1 ovarian, 0.75 mg/kg/d i.p. daily x 3 days): 13%
- Dose to give 50% inhibition of tumour growth ([5]; CH1 ovarian, i.p. daily x 3 days): <0.25 mg/kg/day
